pIC50: −log10 of the molar value.
Biological target: T1, P2Y12 receptor (Homo sapiens, UniProt Q9H244)
T1 construct: endogenous in cells; host or cells: human platelets (outdated from blood banks or fresh), apyrase-washed, whole
Assay: platelet ADP receptor binding assay (ARB): inhibition of [3H]2-MeS-ADP binding to platelets
Settings: [3H]2-MeS-ADP binding to apyrase-washed human platelets
Protocol: 1. The Ability of Candidate Molecules to Inhibit the Binding of [^3H]2-MeS-ADP to the […] Receptor on Platelets was Determined Using a Radioligand Binding Assay.
Utilizing this assay the potency of inhibition of such compounds with respect to [^3H]2-MeS-ADP binding to whole platelets is determined. Under the conditions described in II (3) below, the binding of [^3H]2-MeS-ADP is solely due to the interaction of this ligand with the P2Y12 receptor, in that all the specific binding measured in this assay is competable with a P2Y12 antagonist (i.e., the specific binding is reduced to background levels by competition with an excess of P2Y12 antagonist, with no competition of binding when a P2Y1 antagonist is pre-incubated with the platelet preparation). [^3H]2-MeS-ADP binding experiments are routinely performed with outdated human platelets collected by standard procedures at hospital blood banks. Apyrase-washed outdated platelets are prepared as follows (all steps at room temperature, if not indicated otherwise):
Outdated platelet suspensions are diluted with 1 volume of CGS and platelets pelleted by centrifugation at 1900×g for 45 minutes. Platelet pellets are resuspended at 3-6×10^9 platelets/ml in CGS containing 1 U/ml apyrase (grade V, Sigma, St. Louis, Mo.) and incubated for 15 minutes at 37° C. After centrifugation at 730×g for 20 minutes, pellets are resuspended in Hepes-Tyrode's buffer containing 0.1% BSA (Sigma, St. Louis, Mo.) at a concentration of 6.66×10^8 platelets/ml. Binding experiments are performed after >45 minutes resting of the platelets.
Alternatively, binding experiments are performed with fresh human platelets prepared as described in section I (Inhibition of ADP-Mediated Platelet Aggregation in vitro), except that platelets are resuspended in Hepes-Tyrode's buffer containing 0.1% BSA (Sigma, St. Louis, Mo.) at a concentration of 6.66×10^8 platelets/mil. Very similar results are obtained with fresh and outdated platelets.
A platelet ADP receptor binding assay (ARB) using the tritiated potent agonist ligand [^3H]2-MeS-ADP (Jantzen, H. M. et al. (1999) Thromb. Hemost. 81:111-117) has been adapted to the 96-well microtiter format. In an assay volume of 0.2 ml Hepes-Tyrode's buffer with 0.1% BSA and 0.6% DMSO, 1×10^8 apyrase-washed platelets are preincubated in 96-well flat bottom microtiter plates for 5 minutes with serial dilutions of test compounds before addition of 1 nM [^3H]2-MeS-ADP ([^3H]2-methylthioadenosine-5′-diphosphate, ammonium salt; specific activity 20-50 Ci/mmole, obtained by custom synthesis from Amersham Life Science, Inc., Arlington Heights, Ill., or NEN Life Science Products, Boston, Mass.). Total binding is determined in the absence of test compounds. Samples for nonspecific binding may contain 10 μM unlabelled 2-MeS-ADP (RBI, Natick, Mass.). After incubation for 15 minutes at room temperature, unbound radioligand is separated by rapid filtration and two washes with cold (4-8° C.) Binding Wash Buffer (10 mM Hepes pH 7.4, 138 mM NaCl) using a 96-well cell harvester (Minidisc 96, Skatron Instruments, Sterling, Va.) and 8×12 GF/C glassfiber filtermats (Printed Filtermat A, for 1450 Microbeta, Wallac Inc., Gaithersburg, Md.). The platelet-bound radioactivity on the filtermats is determined in a scintillation counter (Microbeta 1450, Wallac Inc., Gaithersburg, Md.). Specific binding is determined by subtraction of non-specific binding from total binding, and specific binding in the presence of test compounds is expressed as % of specific binding in the absence of test compound dilutions. IC50s were derived by non-linear regression analysis.

T1 sequence (Q9H244 whole entry): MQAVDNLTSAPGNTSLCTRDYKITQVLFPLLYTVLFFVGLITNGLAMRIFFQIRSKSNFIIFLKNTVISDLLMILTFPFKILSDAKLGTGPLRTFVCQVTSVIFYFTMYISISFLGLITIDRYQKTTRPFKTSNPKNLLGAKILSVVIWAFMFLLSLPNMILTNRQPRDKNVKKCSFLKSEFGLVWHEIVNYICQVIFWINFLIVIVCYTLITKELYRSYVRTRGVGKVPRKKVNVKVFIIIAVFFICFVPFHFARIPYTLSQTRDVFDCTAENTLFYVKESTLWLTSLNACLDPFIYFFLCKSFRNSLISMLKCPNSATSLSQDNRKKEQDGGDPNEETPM

SMILES	pIC50
CNc1cc2[nH]c(=O)n(-c3ccc(C(=O)NC(c4cc(Cl)cc(Cl)c4)c4nnn[nH]4)cc3)c(=O)c2cc1F (stereo not shown) [Compound 30, N-((3,5-dichlorophenyl)(1H-tetrazol-5-yl)methyl)-4-(6-fluoro-7-(methylamino)-2,4-dioxo-1,2-dihydroquinazolin-3(4H)-yl)benzamide]	< 6.30
CNc1cc2c(cc1F)C(=O)N(c1ccc(CC(=O)NC(C(N)=O)c3ccc(Cl)s3)cc1)CO2 (stereo not shown) [Compound 122, N-(2-amino-1-(5-chlorothiophen-2-yl)-2-oxoethyl)-2-(4-(6-fluoro-7-(methylamino)-4-oxo-2H-benzo[e][1,3]oxazin-3(4H)-yl)phenyl)acetamide]	6.30 to 7.30
CNc1cc2cnn(-c3ccc(C(=O)NC(C(=O)O)c4ccc(Cl)s4)cc3)c(=O)c2cc1F (stereo not shown) [Compound 117, 2-(5-chlorothiophen-2-yl)-2-(4-(7-fluoro-6-(methylamino)-1-oxophthalazin-2(1H)-yl)benzamido)acetic acid]	6.30 to 7.30
CNc1cc2[nH]c(=O)n(-c3ccc(C(=O)NC(c4cccc(OC)c4)c4nnn[nH]4)cc3)c(=O)c2cc1F (stereo not shown) [Compound 23, 4-(6-fluoro-7-(methylamino)-2,4-dioxo-1,2-dihydroquinazolin-3(4H)-yl)-N-((3-methoxyphenyl)(1H-tetrazol-5-yl)methyl)benzamide]	< 6.30
CNc1cc2[nH]c(=O)n(-c3ccc(C(=O)NC(c4cccc(F)c4)c4nnn[nH]4)cc3)c(=O)c2cc1F (stereo not shown) [Compound 24, 4-(6-fluoro-7-(methylamino)-2,4-dioxo-1,2-dihydroquinazolin-3(4H)-yl)-N-((3-fluorophenyl)(1H-tetrazol-5-yl)methyl)benzamide]	< 6.30
CNc1cc2c(cc1F)C(=O)N(c1ccc(C(=O)NC(Cc3ccccc3)C(=O)O)cc1)CO2 (stereo not shown) [Compound 59, 2-(4-(6-fluoro-7-(methylamino)-4-oxo-2H-benzo[e][1,3]oxazin-3(4H)-yl)benzamido)-3-phenylpropanoic acid]	< 6.30
CNc1cc2c(cc1F)C(=O)N(c1ccc(CC(=O)NC(C(=O)OC)c3ccc(Cl)s3)cc1)CO2 (stereo not shown) [Compound 118, methyl 2-(5-chlorothiophen-2-yl)-2-(2-(4-(6-fluoro-7-(methylamino)-4-oxo-2H-benzo[e][1,3]oxazin-3(4H)-yl)phenyl)acetamido)acetate]	6.30 to 7.30
CNc1cc2c(cc1F)C(=O)N(c1ccc(C(=O)N[C@H](c3nnn[nH]3)c3ccc(Cl)s3)cc1)CO2 [Compound 89, (R)-N-((5-chlorothiophen-2-yl)(1H-tetrazol-5-yl)methyl)-4-(6-fluoro-7-(methylamino)-4-oxo-2H-benzo[e][1,3]oxazin-3(4H)-yl)benzamide]	> 7.30
Cc1ccc2c(c1)C(=O)N(c1ccc(C(=O)NC(C(=O)O)c3ccc(Cl)s3)cc1)CO2 (stereo not shown) [Compound 77, 2-(5-chlorothiophen-2-yl)-2-(4-(6-methyl-4-oxo-2H-benzo[e][1,3]oxazin-3(4H)-yl)benzamido)acetic acid]	< 6.30
O=C(NC(C(=O)O)c1ccc(Cl)s1)c1ccc(-n2cc(Br)c3ccccc3c2=O)cc1 (stereo not shown) [Compound 102, 2-(4-(4-bromo-1-oxoisoquinolin-2(1H)-yl)benzamido)-2-(5-chlorothiophen-2-yl)acetic acid]	< 6.30
CNc1cc2c(cc1F)C(=O)N(c1ccc(C(=O)N[C@@H](c3nnn[nH]3)c3ccc(Cl)s3)cc1)CO2 [Compound 87, N-((5-chlorothiophen-2-yl)(1H-tetrazol-5-yl)methyl)-4-(6-fluoro-7-(methylamino)-4-oxo-2H-benzo[e][1,3]oxazin-3(4H)-yl)benzamide]	> 7.30
CNc1cc2[nH]c(=O)n(-c3ccc(C(=O)NC(c4cccc(C(F)(F)F)c4)c4nnn[nH]4)cc3)c(=O)c2cc1F (stereo not shown) [Compound 34]	< 6.30
CNc1cc2[nH]c(=O)n(-c3ccc(C(=O)NC(c4nnn[nH]4)c4ccc(Cl)s4)cc3OC)c(=O)c2cc1F (stereo not shown) [Compound 52, N-((5-chlorothiophen-2-yl)(1H-tetrazol-5-yl)methyl)-4-(6-fluoro-7-(methylamino)-2,4-dioxo-1,2-dihydroquinazolin-3(4H)-yl)-3-methoxybenzamide]	6.30 to 7.30
